Assay results as given in patent publication US20140213446A1, “HERBICIDAL COMPOSITIONS AND METHODS USING COMBINATIONS OF 4-AMINO-3-CHLORO-6-(4-CHLORO-2-FLUORO-3-METHOXYPHENYL)PYRIDINE-2-CARBOXYLIC ACID OR A DERIVATIVE THEREOF AND AN ARYLOXYPHENOXY PROPIONATE ACCASE INHIBITOR HERBICIDE” (DOW AGROSCIENCES LLC, priority 2013, published 2014).
Several values for one entry are separate records, joined by “and”; a condition that tells them apart may be missing. Identical values can stand only once.

Legend:
Experiment in all cases: Postemergent herbicidal activity, greenhouse
Format in all cases: in vivo
[1] = system: DIGSA Digitaria sanguinalis (L.) Scop. (large crabgrass)
Protocol: (§1) Evaluation of Postemergent Herbicidal Activity. Seeds or nutlets of the desired test plant species were planted in Sun Gro Metro-Mix® 360 planting mixture, which typically has a pH of 6.0 to 6.8 and an organic matter content of about 30 percent, in plastic pots with a surface area of 64 square centimeters (cm^2). When required to ensure good germination and healthy plants, a fungicide treatment and/or other chemical or physical treatment was applied. The plants were grown for 7-21 days (d) in a greenhouse with an approximate 15 hour (h) photoperiod which was maintained at about 23-29° C. during the day and 22-28° C. during the night. Nutrients and water were added on a regular basis and supplemental lighting was provided with overhead metal halide 1000-Watt lamps as necessary. The plants were employed for testing when they reached the first or second true leaf stage.
(§2) A weighed amount, determined by the highest rate to be tested, of each test compound was placed in a 25 milliliter (mL) glass vial and was dissolved in 4 mL of a 97:3 volume per volume (v/v) mixture of acetone and dimethyl sulfoxide (DMSO) to obtain concentrated stock solutions. […] The concentrated stock solutions obtained were diluted with 20 mL of an aqueous mixture containing acetone, water, isopropyl alcohol, DMSO, Atplus 411F crop oil concentrate, and Triton® X-155 surfactant in a 48.5:39:10:1.5:1.0:0.02 v/v ratio to obtain spray solutions containing the highest application rates. Additional application rates were obtained by serial dilution of 12 mL of the high rate solution into a solution containing 2 mL of a 97:3 v/v mixture of acetone and DMSO and 10 mL of an aqueous mixture containing acetone, water, isopropyl alcohol, DMSO, Atplus 411F crop oil concentrate, and Triton X-155 surfactant in a 48.5:39:10:1.5:1.0:0.02 v/v ratio to obtain ½X, ¼X, ⅛X and 1/16X rates of the high rate. Compound requirements are based upon a 12 mL application volume at a rate of 187 liters per hectare (L/ha). Formulated compounds were applied to the plant material with an overhead Mandel track sprayer equipped with 8002E nozzles calibrated to deliver 187 L/ha over an application area of 0.503 square meters (m^2) at a spray height of 18 inches ([…]) above the average plant canopy height. Control plants were sprayed in the same manner with the solvent blank.
(§3) Treatments consisted of the methyl ester of 4-amino-3-chloro-6-(4-chloro-2-fluoro-3-methoxyphenyl)pyridine-2-carboxylic acid (Cmpd 1) as technical grade material and fluazifop-P-butyl (Fusilade® DX), haloxyfop-P-methyl (GALLANT® super), and quizalofop-P-ethyl (Assure® II) alone and in combination. The form of compound of formula (I) and fluazifop-P-butyl, haloxyfop-P-methyl, and quizalofop-P-ethyl were applied on an acid equivalent basis.
(§4) The treated plants and control plants were placed in a greenhouse as described above and watered by subirrigation to prevent wash-off of the test compounds. After 14 d, the condition of the test plants as compared with that of the untreated plants was determined visually and scored on a scale of 0 to 100 percent where 0 corresponds to no injury and 100 corresponds to complete kill.
(§5) Results of testing mixtures in accordance with this disclosure and of the components of the mixtures separately against various common weeds in greenhouse trials are reported in the following tables. The reported values are of percent (%) control or percent (%) injury, visually rated. Colby's equation was used to determine the herbicidal effects expected from the mixtures (Colby, S. R. Calculation of the synergistic and antagonistic response of herbicide combinations. Weeds 1967, 15, 20-22.).
(§6) More specifically, the following equation was used to calculate the expected activity of mixtures containing two active ingredients, A and B:
(§7) A=observed efficacy of active ingredient A at the same concentration as used in the mixture; B=observed efficacy of active ingredient B at the same concentration as used in the mixture. […]

[2] = system: CYPES Cyperus esculentus L. (yellow nutsedge)
Protocol: as §1, §2, §3, §4, §5, §6, §7

[3] = system: HELAN Helianthus annuus L. (common sunflower)
Protocol: as §1, §2, §3, §4, §5, §6, §7

[4] = system: STEME Stellaria media (L.) Vill. (common chickweed)
Protocol: as §1, §2, §3, §4, §5, §6, §7

[5] = system: ABUTH Abutilon theophrasti Medik. (velvetleaf)
Protocol: as §1, §2, §3, §4, §5, §6, §7

[6] = system: VIOTR Viola tricolor L. (wild violet)
Protocol: as §1, §2, §3, §4, §5, §6, §7

[7] = system: GLXMA Glycine max (soybean)
Protocol: as §1, §2, §3, §4, §5, §6, §7

[8] = system: AVEFA Avena fatua L. (wild oat)
Protocol: as §1, §2, §3, §4, §5, §6, §7

[9] = system: IPOHE Ipomoea hederacea (L.) Jacq. (ivyleaf momingglory)
Protocol: as §1, §2, §3, §4, §5, §6, §7

[10] = system: EPHHL Euphorbia heterophylla L. (wild poinsettia)
Protocol: as §1, §2, §3, §4, §5, §6, §7

[11] = system: BRSNW Brassica napus (winter oilseed rape)
Protocol: as §1, §2, §3, §4, §5, §6, §7

[12] = system: SETFA Setaria faberi Herrm. (giant foxtail)
Protocol: as §1, §2, §3, §4, §5, §6, §7

[13] = system: AMARE Amaranthus retroflexus L. (redroot pigweed)
Protocol: as §1, §2, §3, §4, §5, §6, §7

[14] = system: SORVU Sorghum vulgare (common sorghum)
Protocol: as §1, §2, §3, §4, §5, §6, §7

[15] = system: CIRAR Cirsium arvense (L.) Scop. (Canada thistle)
Protocol: as §1, §2, §3, §4, §5, §6, §7

[16] = system: CHEAL Chenopodium album L. (common lambsquarters)
Protocol: as §1, §2, §3, §4, §5, §6, §7

COC(=O)c1nc(-c2ccc(Cl)c(OC)c2F)cc(N)c1Cl [Cmpd 1, methyl ester of 4-amino-3-chloro-6-(4-chloro-2-fluoro-3-methoxyphenyl)pyridine-2-carboxylic acid]
Visual Growth Reduction (%) 14 DAA Obs ([1]; Cmpd 1 1.25 g ae/ha): 0% | Visual Growth Reduction (%) 14 DAA Obs ([1]; Cmpd 1 2.5 g ae/ha): 0% | Visual Growth Reduction (%) 14 DAA Obs ([1]; Cmpd 1 5 g ae/ha): 0% | Visual Growth Reduction (%) 14 DAA Obs ([2]; Cmpd 1 1.25 g ae/ha): 50% | Visual Growth Reduction (%) 14 DAA Obs ([2]; Cmpd 1 2.5 g ae/ha): 90% | Visual Growth Reduction (%) 14 DAA Obs ([2]; Cmpd 1 5 g ae/ha): 93% | Visual Growth Reduction (%) 14 DAA Obs ([3]; Cmpd 1 1.25 g ae/ha): 20% | Visual Growth Reduction (%) 14 DAA Obs ([3]; Cmpd 1 2.5 g ae/ha): 20% | Visual Growth Reduction (%) 14 DAA Obs ([3]; Cmpd 1 5 g ae/ha): 40% | Visual Growth Reduction (%) 14 DAA Obs ([4]; Cmpd 1 1.25 g ae/ha): 30% | Visual Growth Reduction (%) 14 DAA Obs ([4]; Cmpd 1 2.5 g ae/ha): 20% | Visual Growth Reduction (%) 14 DAA Obs ([4]; Cmpd 1 5 g ae/ha): 40% | Visual Growth Reduction (%) 14 DAA Obs ([5]; Cmpd 1 1.25 g ae/ha): 80% | Visual Growth Reduction (%) 14 DAA Obs ([5]; Cmpd 1 2.5 g ae/ha): 85% | Visual Growth Reduction (%) 14 DAA Obs ([5]; Cmpd 1 5 g ae/ha): 90% | Visual Growth Reduction (%) 14 DAA Obs ([6]; Cmpd 1 1.25 g ae/ha): 10% | Visual Growth Reduction (%) 14 DAA Obs ([6]; Cmpd 1 2.5 g ae/ha): 10% | Visual Growth Reduction (%) 14 DAA Obs ([6]; Cmpd 1 5 g ae/ha): 30% | Visual Growth Reduction (%) 14 DAA Obs ([7]; Cmpd 1 1.25 g ae/ha): 70% | Visual Growth Reduction (%) 14 DAA Obs ([7]; Cmpd 1 2.5 g ae/ha): 95% | Visual Growth Reduction (%) 14 DAA Obs ([7]; Cmpd 1 5 g ae/ha): 97% | Visual Growth Reduction (%) 14 DAA Obs ([8]; Cmpd 1 1.25 g ae/ha): 0% | Visual Growth Reduction (%) 14 DAA Obs ([8]; Cmpd 1 2.5 g ae/ha): 0% | Visual Growth Reduction (%) 14 DAA Obs ([8]; Cmpd 1 5 g ae/ha): 0% | Visual Growth Reduction (%) 14 DAA Obs ([9]; Cmpd 1 1.25 g ae/ha): 10% | Visual Growth Reduction (%) 14 DAA Obs ([9]; Cmpd 1 2.5 g ae/ha): 20% | Visual Growth Reduction (%) 14 DAA Obs ([9]; Cmpd 1 5 g ae/ha): 20% | Visual Growth Reduction (%) 14 DAA Obs ([10]; Cmpd 1 1.25 g ae/ha): 95% | Visual Growth Reduction (%) 14 DAA Obs ([10]; Cmpd 1 2.5 g ae/ha): 95% | Visual Growth Reduction (%) 14 DAA Obs ([10]; Cmpd 1 5 g ae/ha): 95% | Visual Growth Reduction (%) 14 DAA Obs ([11]; Cmpd 1 1.25 g ae/ha): 0% | Visual Growth Reduction (%) 14 DAA Obs ([11]; Cmpd 1 2.5 g ae/ha): 5% | Visual Growth Reduction (%) 14 DAA Obs ([11]; Cmpd 1 5 g ae/ha): 20% | Visual Growth Reduction (%) 14 DAA Obs ([12]; Cmpd 1 1.25 g ae/ha): 0% | Visual Growth Reduction (%) 14 DAA Obs ([12]; Cmpd 1 2.5 g ae/ha): 0% | Visual Growth Reduction (%) 14 DAA Obs ([12]; Cmpd 1 5 g ae/ha): 30% | Visual Growth Reduction (%) 14 DAA Obs ([13]; Cmpd 1 1.25 g ae/ha): 50% | Visual Growth Reduction (%) 14 DAA Obs ([13]; Cmpd 1 2.5 g ae/ha): 60% | Visual Growth Reduction (%) 14 DAA Obs ([13]; Cmpd 1 5 g ae/ha): 90% | Visual Growth Reduction (%) 14 DAA Obs ([14]; Cmpd 1 1.25 g ae/ha): 0% | Visual Growth Reduction (%) 14 DAA Obs ([14]; Cmpd 1 2.5 g ae/ha): 0% | Visual Growth Reduction (%) 14 DAA Obs ([14]; Cmpd 1 5 g ae/ha): 0% | Visual Growth Reduction (%) 14 DAA Obs ([15]; Cmpd 1 1.25 g ae/ha): 30% | Visual Growth Reduction (%) 14 DAA Obs ([15]; Cmpd 1 2.5 g ae/ha): 50% and 30% | Visual Growth Reduction (%) 14 DAA Obs ([15]; Cmpd 1 5 g ae/ha): 30% | Visual Growth Reduction (%) 14 DAA Obs ([16]; Cmpd 1 1.25 g ae/ha): 70% | Visual Growth Reduction (%) 14 DAA Obs ([16]; Cmpd 1 2.5 g ae/ha): 80% | Visual Growth Reduction (%) 14 DAA Obs ([16]; Cmpd 1 5 g ae/ha): 93%
